Assays:
BRK = molecular target: T1, BRK (Homo sapiens, UniProt Q13882); assay: Kinase inhibition profiling BRK (ELISA); type: biochemical
T1 construct: made in house; host or cells: baculovirus expression system
Procedure: (§1) In particular, the target kinases were Tyrosine kinases and Serine/Threonine kinases.
(§2) Each test compound was weighed and dissolved in DMSO to make 1 mM stock solution. The stock solution was diluted with DMSO to achieve 20 μM. The compound solution was diluted with the assay buffer to achieve 0.8 μM.

PDGFRα = molecular target: T2, PDGFRα (Homo sapiens, UniProt P16234); assay: Kinase inhibition profiling PDGFRα (ELISA); type: biochemical
T2 construct: Cytoplasmic domain of human PDGFRα [550-1089; made in house; host or cells: baculovirus expression system
Procedure: as §2

ARG = molecular target: T3, ARG (Homo sapiens, UniProt P42684); assay: Kinase inhibition profiling ARG (ELISA); type: biochemical; also: ATP 5 µM
T3 construct: made in house; host or cells: baculovirus expression system
Procedure: as §2

FMS(CSFR) = molecular target: T4, FMS(CSFR) (Homo sapiens, UniProt P07333); assay: Kinase inhibition profiling FMS(CSFR) (ELISA); type: biochemical
T4 construct: Cytoplasmic domain of human FMS [538-972 amino; made in house; host or cells: baculovirus expression system
Procedure: as §2

SRM = molecular target: T5, SRM (Homo sapiens, UniProt Q9H3Y6); assay: Kinase inhibition profiling SRM (ELISA); type: biochemical
T5 construct: Kinase domain (KD) of human SRM [215-489 amino acids; made in house; host or cells: baculovirus expression system
Procedure: as §2

TNK1 = molecular target: T6, TNK1 (Homo sapiens, UniProt Q13470); assay: Kinase inhibition profiling TNK1 (ELISA); type: biochemical
T6 construct: Kinase domain (KD) of human TNK [110-394 amino; made in house; host or cells: baculovirus expression system
Procedure: as §1, §2

[1] = tested on: bovine aorta smooth muscle cells (BASMC); assay: Chemotaxis assay, fMLP-induced migration (modified Boyden chambers); type: cell-based; settings: K-252a 3, 10, 30, 100 nM; fMLP 0.1 μM; overnight migration
Procedure: Chemotaxis assays were performed using a well known and validated protocol (1). Modified Boyden chambers were used with filters having 5-8 μm pore size and treated with collagen I (100 μg/ml in 0.5 M acetic acid) and fibronectin (10 μg/ml, Roche). BASMC (bovine aorta smooth muscle cells) were cultured in serum-free DMEM and a sample of 20,000-40,000 cells was added to the upper well of a Boyden chamber. […] Overnight cell migration was allowed at 37+/−0.5° C., then cells were scraped off and filters were fixed in methanol and stained in a solution of 10% crystal violet in 20% methanol. All experiments were performed at least twice in triplicate. […] Random cell migration, i.e. migration in the absence of chemoattractant, was given the arbitrary value of 100%. Statistical analysis was performed using Student's t test for pairwise comparisons of treatment, or an ANOVA model for the evaluation of treatments with increasing concentrations of a reagent.

LYNb = molecular target: T7, LYNb (Homo sapiens, UniProt P07948); assay: Kinase inhibition profiling LYNb (ELISA); type: biochemical
T7 construct: made in house; host or cells: baculovirus expression system
Procedure: as §2

CaMK4 = molecular target: T8, CaMK4 (Homo sapiens, UniProt Q16566); assay: Kinase inhibition profiling CaMK4 (IMAP); type: biochemical
T8 construct: His (N); made in house; host or cells: baculovirus expression system
Procedure: as §1, §2

HMGB1 = molecular target: T9, HMGB1 (Homo sapiens, UniProt P09429); assay: Protein binding experiments by circular dichroism (CD); settings: assuming 1:1 stoichiometry binding
T9 construct: host or cells: bacteria (inferred from the mention of bacterial contaminants)
From the text: All CD spectra were collected on a Jasco J710 spectropolarimeter equipped with a NesLab RTE111 thermal controller unity, using a quartz cylindrical cuvette with a 1 cm path length (Jasco). A scan speed of 20 nm/min, a bandwidth of o 1 nm, and a resolution of 1 nm was always used.
The spectra are heavily disturbed more than likely due to DMF.

FGFR1 = molecular target: T10, FGFR1 (Homo sapiens, UniProt P11362); assay: Kinase inhibition profiling FGFR1 (ELISA); type: biochemical
T10 construct: Cytoplasmic domain of human FGFR1 [396-820 amino; made in house; host or cells: baculovirus expression system
Procedure: as §2

RET = molecular target: T11, RET (Homo sapiens, UniProt P07949); assay: Kinase inhibition profiling RET (ELISA); type: biochemical; also: ATP 5 µM
T11 construct: Cytoplasmic domain of human RET [658-1114 amino acids; made in house; host or cells: baculovirus expression system
Procedure: as §2

RON = molecular target: T12, RON (Homo sapiens, UniProt Q04912); assay: Kinase inhibition profiling RON (ELISA); type: biochemical
T12 construct: Cytoplasmic domain of human RON [979-1400 amino; made in house; host or cells: baculovirus expression system
Procedure: as §2

FYN = molecular target: T13, FYN (Homo sapiens, UniProt P06241); assay: Kinase inhibition profiling FYN (ELISA); type: biochemical; also: ATP 20 µM
T13 construct: made in house; host or cells: baculovirus expression system
Procedure: as §1, §2

CSK = molecular target: T14, CSK (Homo sapiens, UniProt P41240); assay: Kinase inhibition profiling CSK (ELISA); type: biochemical
T14 construct: His (N, cleaved yes); made in house; host or cells: baculovirus expression system
Procedure: as §2

CaMK2α = molecular target: T15, CaMK2α (Homo sapiens, UniProt Q9UQM7); assay: Kinase inhibition profiling CaMK2α (IMAP); type: biochemical
T15 construct: His (N); made in house; host or cells: baculovirus expression system
Procedure: as §1, §2

EphB2 = molecular target: T16, EphB2 (Homo sapiens, UniProt P29323); assay: Kinase inhibition profiling EphB2 (ELISA); type: biochemical
T16 construct: Cytoplasmic domain of human EphB2 [581-987 amino; made in house; host or cells: baculovirus expression system
Procedure: as §2

TYK2 = molecular target: T17, TYK2 (Homo sapiens, UniProt P29597); assay: Kinase inhibition profiling TYK2 (ELISA); type: biochemical
T17 construct: Kinase domain (KD) of human TYK2 [871-1187 amino; made in house; host or cells: baculovirus expression system
Procedure: as §2

HER2 = molecular target: T18, HER2 (Homo sapiens, UniProt P04626); assay: Kinase inhibition profiling HER2 (ELISA); type: biochemical; also: ATP 5 µM
T18 construct: Cytoplasmic domain of human HER2 [676-1255 amino; made in house; host or cells: baculovirus expression system
Procedure: as §2

IGF1R = molecular target: T19, IGF1R (Homo sapiens, UniProt P08069); assay: Kinase inhibition profiling IGF1R (ELISA); type: biochemical
T19 construct: Cytoplasmic domain of human IGF1R [959-1367 amino; made in house; host or cells: baculovirus expression system
Procedure: as §2

EphA2 = molecular target: T20, EphA2 (Homo sapiens, UniProt P29317); assay: Kinase inhibition profiling EphA2 (ELISA); type: biochemical
T20 construct: made in house; host or cells: baculovirus expression system
Procedure: as §2

p38α = molecular target: T21, p38α (Homo sapiens, UniProt Q16539); assay: Kinase inhibition profiling p38α (IMAP); type: biochemical
T21 construct: GST (N); made in house; host or cells: E. coli
Procedure: as §2

KDR = molecular target: T22, KDR (Homo sapiens, UniProt P35968); assay: Kinase inhibition profiling KDR (ELISA); type: biochemical
T22 construct: Cytoplasmic domain of human KDR [790-1356 amino; made in house; host or cells: baculovirus expression system
Procedure: as §1, §2

AXL = molecular target: T23, AXL (Homo sapiens, UniProt P30530); assay: Kinase inhibition profiling AXL (ELISA); type: biochemical
T23 construct: made in house; host or cells: baculovirus expression system
Procedure: as §1, §2

T14 sequence (P41240 whole entry): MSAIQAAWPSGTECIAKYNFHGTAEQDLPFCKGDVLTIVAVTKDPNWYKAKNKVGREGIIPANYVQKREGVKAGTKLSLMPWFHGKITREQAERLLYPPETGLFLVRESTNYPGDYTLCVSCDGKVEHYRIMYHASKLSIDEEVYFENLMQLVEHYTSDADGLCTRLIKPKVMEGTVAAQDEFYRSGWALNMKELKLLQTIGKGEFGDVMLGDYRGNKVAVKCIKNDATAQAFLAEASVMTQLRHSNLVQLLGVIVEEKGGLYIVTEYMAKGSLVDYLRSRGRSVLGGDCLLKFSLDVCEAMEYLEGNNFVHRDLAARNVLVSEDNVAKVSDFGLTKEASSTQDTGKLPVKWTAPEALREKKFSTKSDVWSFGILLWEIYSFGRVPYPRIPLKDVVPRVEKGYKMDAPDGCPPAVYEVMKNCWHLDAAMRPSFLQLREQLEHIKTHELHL
T8 sequence (Q16566 whole entry): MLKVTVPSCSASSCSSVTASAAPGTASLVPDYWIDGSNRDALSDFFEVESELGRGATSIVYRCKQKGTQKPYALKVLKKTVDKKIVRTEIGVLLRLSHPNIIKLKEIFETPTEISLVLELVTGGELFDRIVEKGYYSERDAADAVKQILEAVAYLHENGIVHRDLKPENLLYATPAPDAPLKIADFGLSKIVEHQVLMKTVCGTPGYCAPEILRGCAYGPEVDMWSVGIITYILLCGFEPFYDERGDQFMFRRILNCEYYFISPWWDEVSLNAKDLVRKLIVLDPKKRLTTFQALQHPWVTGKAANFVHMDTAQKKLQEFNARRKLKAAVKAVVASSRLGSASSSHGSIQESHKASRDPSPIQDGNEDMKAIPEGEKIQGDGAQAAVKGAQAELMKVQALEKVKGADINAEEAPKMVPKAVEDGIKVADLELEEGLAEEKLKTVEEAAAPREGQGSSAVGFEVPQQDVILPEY
T1 sequence (Q13882 2-450): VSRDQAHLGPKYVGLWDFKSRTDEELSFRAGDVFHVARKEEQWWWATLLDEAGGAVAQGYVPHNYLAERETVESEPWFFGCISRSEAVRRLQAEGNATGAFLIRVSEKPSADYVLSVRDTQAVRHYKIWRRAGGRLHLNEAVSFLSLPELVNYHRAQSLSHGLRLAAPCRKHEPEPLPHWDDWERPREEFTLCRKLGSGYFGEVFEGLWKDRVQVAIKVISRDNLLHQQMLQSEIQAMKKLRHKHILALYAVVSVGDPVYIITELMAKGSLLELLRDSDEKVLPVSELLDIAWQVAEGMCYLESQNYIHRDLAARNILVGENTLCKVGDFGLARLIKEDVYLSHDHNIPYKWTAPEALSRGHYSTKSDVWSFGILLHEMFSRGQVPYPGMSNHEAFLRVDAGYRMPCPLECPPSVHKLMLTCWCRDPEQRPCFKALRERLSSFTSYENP
T18 sequence (P04626 676-1255): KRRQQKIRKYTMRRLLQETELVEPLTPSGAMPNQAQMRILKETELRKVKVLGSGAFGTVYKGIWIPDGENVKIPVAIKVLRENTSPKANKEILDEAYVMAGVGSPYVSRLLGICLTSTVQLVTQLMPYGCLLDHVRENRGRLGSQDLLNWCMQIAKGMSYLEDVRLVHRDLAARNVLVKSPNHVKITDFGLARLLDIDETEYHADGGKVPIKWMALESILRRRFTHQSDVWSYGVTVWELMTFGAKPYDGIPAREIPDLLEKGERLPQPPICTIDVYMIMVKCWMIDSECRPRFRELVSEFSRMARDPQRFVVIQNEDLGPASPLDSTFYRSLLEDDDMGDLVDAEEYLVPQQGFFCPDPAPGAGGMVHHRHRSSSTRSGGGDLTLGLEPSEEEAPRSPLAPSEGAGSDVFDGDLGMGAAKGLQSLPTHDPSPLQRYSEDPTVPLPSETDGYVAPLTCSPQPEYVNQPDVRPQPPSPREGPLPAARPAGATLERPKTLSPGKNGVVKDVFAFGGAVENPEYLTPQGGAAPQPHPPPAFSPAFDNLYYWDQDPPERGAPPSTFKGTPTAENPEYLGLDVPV
T3 sequence (P42684 2-1182): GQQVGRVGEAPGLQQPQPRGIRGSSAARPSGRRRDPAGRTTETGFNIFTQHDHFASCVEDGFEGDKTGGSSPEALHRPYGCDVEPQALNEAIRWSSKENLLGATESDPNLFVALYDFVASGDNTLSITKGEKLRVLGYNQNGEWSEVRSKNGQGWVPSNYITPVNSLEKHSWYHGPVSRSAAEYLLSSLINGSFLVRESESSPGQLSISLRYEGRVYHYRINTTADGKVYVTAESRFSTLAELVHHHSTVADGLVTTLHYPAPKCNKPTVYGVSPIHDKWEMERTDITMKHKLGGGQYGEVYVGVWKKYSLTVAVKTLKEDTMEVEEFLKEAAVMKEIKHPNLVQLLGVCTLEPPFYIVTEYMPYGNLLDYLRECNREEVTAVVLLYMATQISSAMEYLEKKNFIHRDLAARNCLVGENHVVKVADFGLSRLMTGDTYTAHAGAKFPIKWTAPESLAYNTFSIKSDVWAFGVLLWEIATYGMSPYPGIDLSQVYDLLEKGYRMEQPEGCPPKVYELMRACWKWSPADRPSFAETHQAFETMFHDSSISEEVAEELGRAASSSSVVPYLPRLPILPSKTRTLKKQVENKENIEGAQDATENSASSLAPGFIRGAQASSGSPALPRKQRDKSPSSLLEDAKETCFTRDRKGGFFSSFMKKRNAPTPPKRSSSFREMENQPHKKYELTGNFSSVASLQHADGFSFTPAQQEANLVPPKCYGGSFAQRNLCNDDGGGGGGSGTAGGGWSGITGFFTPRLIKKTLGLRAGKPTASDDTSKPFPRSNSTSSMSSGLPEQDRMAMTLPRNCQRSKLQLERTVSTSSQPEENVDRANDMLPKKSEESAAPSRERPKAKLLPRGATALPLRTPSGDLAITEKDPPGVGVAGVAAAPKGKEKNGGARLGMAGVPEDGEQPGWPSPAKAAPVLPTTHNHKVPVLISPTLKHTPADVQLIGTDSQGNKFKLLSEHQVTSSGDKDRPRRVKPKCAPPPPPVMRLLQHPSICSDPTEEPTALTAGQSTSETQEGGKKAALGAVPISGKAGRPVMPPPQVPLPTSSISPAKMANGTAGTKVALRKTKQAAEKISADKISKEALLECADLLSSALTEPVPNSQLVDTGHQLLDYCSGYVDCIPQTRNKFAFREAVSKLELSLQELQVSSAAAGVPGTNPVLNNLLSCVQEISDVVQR
T20 sequence (P29317 572-976): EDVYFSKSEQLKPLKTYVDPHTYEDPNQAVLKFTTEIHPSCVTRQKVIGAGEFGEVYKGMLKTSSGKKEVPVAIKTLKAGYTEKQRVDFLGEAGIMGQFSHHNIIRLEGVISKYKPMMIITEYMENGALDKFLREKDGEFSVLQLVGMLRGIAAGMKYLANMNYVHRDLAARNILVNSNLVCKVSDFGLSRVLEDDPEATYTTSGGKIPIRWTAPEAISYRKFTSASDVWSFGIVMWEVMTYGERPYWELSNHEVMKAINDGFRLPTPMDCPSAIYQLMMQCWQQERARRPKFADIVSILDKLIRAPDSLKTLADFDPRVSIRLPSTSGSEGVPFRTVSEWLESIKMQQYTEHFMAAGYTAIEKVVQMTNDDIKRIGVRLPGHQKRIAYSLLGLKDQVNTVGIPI
T11 sequence (P07949 658-1114): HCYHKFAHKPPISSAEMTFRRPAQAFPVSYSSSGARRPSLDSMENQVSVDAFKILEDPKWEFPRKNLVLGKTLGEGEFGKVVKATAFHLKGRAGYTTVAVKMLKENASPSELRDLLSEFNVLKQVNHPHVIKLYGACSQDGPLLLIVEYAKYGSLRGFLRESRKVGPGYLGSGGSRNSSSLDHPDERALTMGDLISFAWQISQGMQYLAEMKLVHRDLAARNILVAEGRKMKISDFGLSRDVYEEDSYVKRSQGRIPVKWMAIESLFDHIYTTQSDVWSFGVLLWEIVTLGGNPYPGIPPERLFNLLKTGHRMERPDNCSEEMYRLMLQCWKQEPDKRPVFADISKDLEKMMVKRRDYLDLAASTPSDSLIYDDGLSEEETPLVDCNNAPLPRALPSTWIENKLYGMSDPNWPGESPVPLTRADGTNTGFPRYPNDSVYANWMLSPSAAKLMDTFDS
T4 sequence (P07333 538-972): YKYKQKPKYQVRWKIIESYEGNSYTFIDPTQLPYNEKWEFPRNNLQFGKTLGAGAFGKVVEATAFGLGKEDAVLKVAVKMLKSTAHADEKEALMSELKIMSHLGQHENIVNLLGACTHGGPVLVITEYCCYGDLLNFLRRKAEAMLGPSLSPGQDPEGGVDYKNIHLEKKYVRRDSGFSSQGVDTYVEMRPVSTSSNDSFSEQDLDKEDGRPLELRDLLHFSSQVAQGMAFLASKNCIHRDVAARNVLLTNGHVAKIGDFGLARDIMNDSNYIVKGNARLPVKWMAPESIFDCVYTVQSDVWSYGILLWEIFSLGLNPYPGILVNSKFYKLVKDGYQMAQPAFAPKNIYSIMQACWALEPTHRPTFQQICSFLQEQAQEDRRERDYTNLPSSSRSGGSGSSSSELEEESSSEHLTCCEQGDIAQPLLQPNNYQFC
T13 sequence (P06241 whole entry): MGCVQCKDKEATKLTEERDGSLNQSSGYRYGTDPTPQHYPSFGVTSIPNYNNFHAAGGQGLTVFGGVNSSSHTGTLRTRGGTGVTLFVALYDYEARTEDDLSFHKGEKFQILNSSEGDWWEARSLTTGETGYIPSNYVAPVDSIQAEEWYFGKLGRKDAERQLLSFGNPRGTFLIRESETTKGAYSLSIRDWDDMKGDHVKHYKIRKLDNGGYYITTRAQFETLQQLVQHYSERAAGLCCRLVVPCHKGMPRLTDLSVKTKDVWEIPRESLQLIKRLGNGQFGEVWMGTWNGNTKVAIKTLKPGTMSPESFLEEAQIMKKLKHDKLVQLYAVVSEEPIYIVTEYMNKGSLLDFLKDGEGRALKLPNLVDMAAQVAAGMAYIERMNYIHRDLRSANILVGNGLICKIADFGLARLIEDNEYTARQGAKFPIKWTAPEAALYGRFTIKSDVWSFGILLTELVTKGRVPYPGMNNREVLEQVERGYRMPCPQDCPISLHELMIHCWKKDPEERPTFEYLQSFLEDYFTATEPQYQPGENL

`COC(=O)[C@]1(O)CC2O[C@@]1(C)n1c3ccccc3c3c4c(c5c6ccccc6n2c5c31)C(=O)NC4` [K-252a] showed an inhibition at 0.2 µM (BRK) of 35.8%, an inhibition at 0.2 µM (PDGFRα) of 96.1% and an inhibition at 0.2 µM (ARG) of 0.1%. The inhibition at 0.2 µM (FMS(CSFR)) was 55.7%, the inhibition at 0.2 µM (SRM) was 0.4% and the inhibition at 0.2 µM (TNK1) was 94.8%. The “cell migration induced by fMLP” value [1] was “does not interfere with cell migration induced by fMLP, whatever the concentration tested”, the inhibition at 0.2 µM (LYNb) was 51.2% and the inhibition at 0.2 µM (CaMK4) was 0%. For the same molecule, the Kd (HMGB1) was roughly 2 µM, the inhibition at 0.2 µM (FGFR1) was 57.9% and the inhibition at 0.2 µM (RET) was 94.2%. The inhibition at 0.2 µM (RON) was 5.2%, the inhibition at 0.2 µM (FYN) was 67.2% and the inhibition at 0.2 µM (CSK) was 43%. For the same molecule, the inhibition at 0.2 µM (CaMK2α) was 83.9%, the inhibition at 0.2 µM (EphB2) was 0.4% and the inhibition at 0.2 µM (TYK2) was 98.1%. For the same molecule, the inhibition at 0.2 µM (HER2) was 7.7%, the inhibition at 0.2 µM (IGF1R) was 40.6% and the inhibition at 0.2 µM (EphA2) was 8.9%. The inhibition at 0.2 µM (p38α) was -1.5%, the inhibition at 0.2 µM (KDR) was 62.9% and the inhibition at 0.2 µM (AXL) was 51.5%.
